Experimental data published in US20250250292A1, “DELIVERY SYSTEM TO TARGET GRAM-NEGATIVE BACTERIA” (priority 2022, published 2025).
Values after ≈ are worked out from the molar mass of the structure shown. Like-named read-outs stand apart in the source and are kept apart here.

Columns and labels:
Acinetobacter baumannii [1] = experiment: Antibacterial in vitro activity (MIC); type: cell-based
Procedure: (§1) These compounds were tested in an E. coli and Klebsiella strain to determine the change in OD600 as a function of concentration (FIG. 5, E. coli; FIG. 6, Klebsiella). The antibacterial activity of the compounds was further analyzed and activity was determine a variety of different bacterial strains.

Citrobacter freundii = experiment: Antibacterial in vitro activity (MIC); type: cell-based
Procedure: as §1

Enterobacter cloacae = experiment: Antibacterial in vitro activity (MIC); type: cell-based
Procedure: as §1

Enterococcus faecium = experiment: Antibacterial in vitro activity (MIC); type: cell-based; settings: isolate D0459, Clinical isolate
Procedure: as §1

Escherichia coli = experiment: Antibacterial in vitro activity (MIC); type: cell-based
Procedure: as §1

Haemophilus influenzae = experiment: Antibacterial in vitro activity (MIC); type: cell-based
Procedure: as §1

Klebsiella pneumoniae = experiment: Antibacterial in vitro activity (MIC); type: cell-based
Procedure: as §1

Proteus mirabilis = experiment: Antibacterial in vitro activity (MIC); type: cell-based
Procedure: as §1

Pseudomonas aeruginosa [2] = experiment: Antibacterial in vitro activity (MIC); type: cell-based
Procedure: as §1

Salmonella typhimurium = experiment: Antibacterial in vitro activity (MIC); type: cell-based; settings: Salmonella enterica, ATCC 13311 / TYPHIMURIUM; isolate D0109, ATCC13311
Procedure: as §1

Staphylococcus aureus = experiment: Antibacterial in vitro activity (MIC); type: cell-based
Procedure: as §1

Streptococcus agalactiae = experiment: Antibacterial in vitro activity (MIC); type: cell-based; settings: isolate B0790, Clinical isolate
Procedure: as §1

Streptococcus pneumoniae = experiment: Antibacterial in vitro activity (MIC); type: cell-based
Procedure: as §1

Streptococcus pyogenes = experiment: Antibacterial in vitro activity (MIC); type: cell-based; settings: isolate B0780, Clinical isolate
Procedure: as §1

Pseudomonas aeruginosa [3] = settings: McCarthy, 2021; cited from earlier work
Acinetobacter baumannii [4] = settings: McCarthy, 2021; cited from earlier work
E. faecalis = settings: McCarthy, 2021; cited from earlier work
MRC5 fibroblast cells = experiment: Cel Titer Glo cytotoxicity in MRC5 cells; type: cell-based; settings: Homo sapiens
Procedure: In order to facilitate development of the TPP containing antibiotics, a series of TPP linkers were prepared and tested for their toxicity in MRC5 cells. This library of linkers are shown below: The toxicity of these linkers in MRC5 cells after a 72 hour incubation.

[5] = tested on: Escherichia coli (BL21(DE3)); experiment: Resazurin blue (alamarBlue) bacterial cell viability assay, gram-negative model; type: cell-based
Procedure: (§2) To compare the efficacy of pleuromutilin and the pleuromulin-TPP^+ ester pro-drug (AP-8-159B) gram-negative and gram-positive pathogen model system were used. Thus, Escherichia coli (BL21(DE3) from New England Biolabs) was used as a model strain for gram-negative bacteria and clinical isolates of Staphylococcus aureus were used as the model system for gram-positive bacteria (NR-49120, NR-46413 obtained from BEI Resources). All strains were cultured at 37° C. overnight in Luria Bertani (LB) (BD 244610). For testing the drug sensitivity, bacteria were grown in RPMI medium containing 10% fetal bovine serum or human serum.
A resazurin blue assay (alamarBlue®) (Toté et al., 2009; Costa et al., 2021; Wannigama et al., 2019; Travnickova et al., 2019) was used to evaluate bacterial cell viability. Resazurin (7-hydroxy-10-oxidophenoxazin-10-ium-3-one, sodium) is a blue fluorogenic dye used as a redox indicator in cell viability and proliferation assays for bacteria, yeast, or mammalian cells. The resazurin assay protocol is based on the reduction of oxidized non-fluorescent blue resazurin to a red fluorescent dye (resorufin), where NADPH dehydrogenase, without being bound by theory, is probably responsible for the transference of electrons from NADPH+H^+ to resazurin (Costa et al., 2021). The amount of resorufin produced is directly proportional to the number of living cells. This simple fluorometric-based assay rapidly quantifies metabolically active bacterial cells. Two controls were added to the plate to confirm the correct response from the resazurin. The positive control used evaluated media alone without bacterial culture to confirm there was no change from blue to red. The negative control evaluated the bacteria culture alone without added compound to provide a 100% growth control (red). Thus, resazurin sodium salt (Sigma R7017) was added to pleuromutilin or pleuromutilin-TPP+ prodrug treated bacterial samples at a final concentration of 0.02% and incubated for 8 hours at 37° C. Changes in fluorescence were measured on the Biotek Synergy 2 plate reader after an 8-hour incubation at 37° C. using an excitation filter range of 530-570 nm and an emission filter range of 590-620 nm. An increase in fluorescence intensity corresponded to bacterial growth and was quantified by comparison with untreated bacterial control samples. The ratio of (TThreshold (untreated)/TThreshold (prodrug-treated)) (where T=time) was used to quantify the change in bacterial growth. To minimize inter-experimental variations, TThreshold values were corrected by subtracting untreated control cultures to reach minimum detectable fluorescence. At the end of the experiment, wells were visualized for changes in color from blue (inviable bacteria) to red (viable bacteria) and a picture was taken.

[6] = tested on: clinical isolates of Staphylococcus aureus (NR-49120, NR-46413); experiment: Resazurin blue (alamarBlue) bacterial cell viability assay, gram-positive model; type: cell-based; settings: clinical strains of Staphylococcus aureus
Procedure: as §2
A resazurin blue assay (alamarBlue®) (Toté et al., 2009; Costa et al., 2021; Wannigama et al., 2019; Travnickova et al., 2019) was used to evaluate bacterial cell viability. Resazurin (7-hydroxy-10-oxidophenoxazin-10-ium-3-one, sodium) is a blue fluorogenic dye used as a redox indicator in cell viability and proliferation assays for bacteria, yeast, or mammalian cells. […] This simple fluorometric-based assay rapidly quantifies metabolically active bacterial cells. […] The positive control used evaluated media alone without bacterial culture to confirm there was no change from blue to red. The negative control evaluated the bacteria culture alone without added compound to provide a 100% growth control (red). […] Changes in fluorescence were measured on the Biotek Synergy 2 plate reader after an 8-hour incubation at 37° C. using an excitation filter range of 530-570 nm and an emission filter range of 590-620 nm. An increase in fluorescence intensity corresponded to bacterial growth and was quantified by comparison with untreated bacterial control samples. The ratio of (TThreshold (untreated)/TThreshold (prodrug-treated)) (where T=time) was used to quantify the change in bacterial growth. To minimize inter-experimental variations, TThreshold values were corrected by subtracting untreated control cultures to reach minimum detectable fluorescence. […]

[7] = ATCC15473, isolate B0473, ATCC 15473
[8] = isolate B1062, Clinical isolate
[9] = isolate B0271, Clinical isolate
[10] = isolate D1089, Clinical isolate
[11] = isolate D1090, Clinical isolate
[12] = ATCC25922, isolate B0001, ATCC 25922, read-out: MIC
[13] = isolate B0159, Efflux pump deficient (ΔtolC)
[14] = isolate B0429, Efflux pump deficient (ΔacrAB)
[15] = isolate B1098, Clinical isolate, read-out: MIC
[16] = isolate D0120, Clinical isolate, read-out: MIC
[17] = ATCC49247, isolate B0035, ATCC 49247
[18] = isolate B0126, Clinical isolate
[19] = ATCC11228, isolate B0032, ATCC 11228
[20] = ATCC29519, isolate D0033, ATCC 29519
[21] = ATCC43816, isolate B0305, ATCC 43816
[22] = Proteus mirabilis, isolate D1301, Clinical isolate, read-out: MIC
[23] = isolate D1300, Clinical isolate
[24] = ATCC27853, isolate B0015, ATCC 27853
[25] = ATCC29511, isolate B0016, ATCC 29511
[26] = isolate B0367, Clinical isolate
[27] = ATCC49951, isolate B0009, ATCC 49951
[28] = isolate B0029, Clinical isolate
[29] = isolate B0078, Clinical isolate
[30] = isolate B0415, Clinical isolate
[31] = Table 2, cytotoxicity in MRC5 fibroblast cells

Row | Structure (SMILES) | MIC (Acinetobacter baumannii [1]; [7]) [µg/mL] | MIC (Acinetobacter baumannii [1]; [8]) [µg/mL] | MIC (Citrobacter freundii; [9]) [µg/mL] | MIC (Citrobacter freundii; isolate B0286, AKH Vienna) [µg/mL] | MIC (Enterobacter cloacae; [10]) [µg/mL] | MIC (Enterobacter cloacae; [11]) [µg/mL] | MIC (Escherichia coli; [12]) [µg/mL] | MIC (Escherichia coli; [13]) [µg/mL] | MIC (Escherichia coli; [14]) [µg/mL] | MIC (Escherichia coli; [15]) [µg/mL] | MIC (Escherichia coli; [16]) [µg/mL] | MIC (Haemophilus influenzae; [17]) [µg/mL] | MIC (Haemophilus influenzae; [18]) [µg/mL] | MIC (Klebsiella pneumoniae; [19]) [µg/mL] | MIC (Klebsiella pneumoniae; [20]) [µg/mL] | MIC (Klebsiella pneumoniae; [21]) [µg/mL] | MIC (Proteus mirabilis; [22]) [µg/mL] | MIC (Proteus mirabilis; [23]) [µg/mL] | MIC (Pseudomonas aeruginosa [2]; [24]) [µg/mL] | MIC (Pseudomonas aeruginosa [2]; [25]) [µg/mL] | further results
1 | C[C@H]1c2cccc(O)c2C(=O)C2=C(O)[C@]3(O)C(=O)C(C(N)=O)=C(O)[C@@H](N(C)C)[C@@H]3[C@@H](O)[C@@H]21 [Doxycycline] | 0.5 (≈ 1.13 µM) | ≤ 0.03 | 8 (≈ 18 µM) | 2 (≈ 4.5 µM) | > 32 | 2 (≈ 4.5 µM) | 0.5 (≈ 1.13 µM) | 0.25 (≈ 0.563 µM) | 0.25 (≈ 0.563 µM) | 16 (≈ 36 µM) | 2 (≈ 4.5 µM) | 0.12 (≈ 0.27 µM) | 0.12 (≈ 0.27 µM) | 0.25 (≈ 0.563 µM) | 1 (≈ 2.25 µM) | 1 (≈ 2.25 µM) | 32 (≈ 72 µM) | 32 (≈ 72 µM) | 16 (≈ 36 µM) | 32 (≈ 72 µM) | MIC (Enterococcus faecium): 32 µg/mL (≈ 72 µM); MIC (Pseudomonas aeruginosa [2]; [26]): > 32 µg/mL; MIC (Salmonella typhimurium): 0.5 µg/mL (≈ 1.13 µM); MIC (Staphylococcus aureus; [27]): 0.12 µg/mL (≈ 0.27 µM); MIC (Staphylococcus aureus; [28]): 8 µg/mL (≈ 18 µM); MIC (Staphylococcus aureus; isolate B1325, Clinical isolates): 4 µg/mL (≈ 9 µM); MIC (Streptococcus agalactiae): 0.12 µg/mL (≈ 0.27 µM); MIC (Streptococcus pneumoniae; [29]): 16 µg/mL (≈ 36 µM); MIC (Streptococcus pneumoniae; [30]): 0.12 µg/mL (≈ 0.27 µM); MIC (Streptococcus pyogenes): 16 µg/mL (≈ 36 µM)
2 | C=C[C@]1(C)C[C@@H](OC(=O)CS[C@@H]2CC[C@@H](N)C[C@H]2O)[C@]2(C)[C@H](C)CC[C@]3(CCC(=O)[C@H]32)[C@@H](C)[C@@H]1O [Lefamulin] | – | – | – | – | – | – | – | – | – | – | – | – | – | – | – | – | – | – | – | – | antibacterial activity (Pseudomonas aeruginosa [3]): lacks activity; antibacterial activity (Acinetobacter baumannii [4]): lacks activity; antibacterial activity (E. faecalis): lacks activity
3 | CC(C)C[C@H](NC(=O)[C@H](Cc1ccccc1)NC(=O)c1cnccn1)B(O)O [PS-341, bortezomib] | – | – | – | – | – | – | – | – | – | – | – | – | – | – | – | – | – | – | – | – | IC50 (MRC5 fibroblast cells; Table 1, TPP+ linkers, MRC5 cells, 72-hour incubation): 7 nM; IC50 (MRC5 fibroblast cells; [31]): 0.3 nM
4 | C=C[C@]1(C)C[C@@H](OC(=O)CO)[C@]2(C)[C@H](C)CC[C@]3(CCC(=O)[C@H]32)[C@@H](C)[C@@H]1O [Pleuromutilin] | > 128 | > 128 | > 128 | > 128 | > 128 | > 128 | 128 (≈ 338 µM) | 0.5 (≈ 1.32 µM) | 32 (≈ 84.5 µM) | > 128 | > 128 | 4 (≈ 10.6 µM) | 1 (≈ 2.64 µM) | > 128 | > 128 | > 128 | > 128 | >128 | > 128 | > 128 | cytotoxicity potency ([5]; E Coli BL21 (DE3)): 25 µg/mL; cytotoxic effect ([5]; E. coli BL21 (DE3)): much less cytotoxic; cytotoxic effect [6]: potent cytotoxic agents; IC50 (MRC5 fibroblast cells; [31]): > 90000 nM; MIC (Escherichia coli; isolate B0158, AcrAB-TolC efflux pump WT, read-out: MIC): > 128 µg/mL; MIC (Pseudomonas aeruginosa [2]; [26]): > 128 µg/mL; MIC (Salmonella typhimurium): 128 µg/mL (≈ 338 µM); MIC (Staphylococcus aureus; [27]): 1 µg/mL (≈ 2.64 µM); MIC (Staphylococcus aureus; [28]): 1 µg/mL (≈ 2.64 µM); MIC (Streptococcus pneumoniae; [29]): 4 µg/mL (≈ 10.6 µM); MIC (Streptococcus pneumoniae; [30]): 1 µg/mL (≈ 2.64 µM)
